What was measured:
[1] = system: promastigote forms of Leishmania infantum; test: In vitro antileishmanial activity in promastigote cultures (MTT), L. infantum; type: cell-based, Leishmania infantum MHOM/TN/80/IPT1/LEM 235; details: Leishmania infantum, promastigotes, 72 h incubation, mean ± SEM, n = 3-4 (each run in duplicate), read-out: IC50 (μM) L. infantum MON 235
Method: (§1) Determination of in Vitro Antileishmanial Activity in Promastigote Cultures.
(§2) The effect of the phospholipids according to the present invention against the promastigote forms of Leishmania donovani and Leishmania infantum was evaluated using an MTT (3-(4,5-dimethylthiazol-2yl)-2,5-diphenyltetrazolium bromide)-based enzymatic method as a marker of cell viability and was compared with that of the ether phospholipid hexadecylphosphocholine (Miltefosine). Thus, promastigotes of Leishmania infantum MHOM/TN/80/IPT1/LEM 235 and Leishmania donovani MHOM/IN/80/DD8/LEM 703, were grown in RPMI 1640 supplemented with 10% FCS, L. glutamine and antibiotics, at 26° C. All new compounds were dissolved in DMSO to a final concentration of 9.625 mM and linear 3-fold dilutions were done in the culture medium. 25 μL of promastigote culture at 5×10^5 cells/mL were cultured in a 96-well flat-bottom plate (Costar 3696), and incubated with 25 μL of different drug concentrations at 26° C. After 72 h, 10 μL of 5 mg/mL MTT in PBS (SIGMA M2128) were added and incubation was continued for 3 h. The reaction was stopped by the addition of 50 μL of 50% isopropanol, 10% SDS under gentle shacking for 30 min. Absorbance was measured at 550 nm with reference at 620 nm in a TRITURUS microplate reader.

[2] = system: visceral leishmaniasis; details: cited from earlier work
[3] = system: cutaneous leishmaniasis; details: phase I study; 100-150 mg for 3 weeks; cited from earlier work
[4] = system: promastigote forms of Leishmania donovani; test: In vitro antileishmanial activity in promastigote cultures (MTT), L. donovani; type: cell-based, Leishmania donovani MHOM/IN/80/DD8/LEM 703; details: Leishmania donovani, promastigotes, 72 h incubation, mean ± SEM, n = 3-4 (each run in duplicate), read-out: IC50 (μM) L. donovani MON 703
Method: as §1, §2

## CCCCCCCCCCCCCCCCOP(=O)([O-])OCC[N+](C)(C)C [Miltefosine, hexadecylphosphocholine]
[1]
  IC50: 22.6 ± 3.6 µM
[2]; mice
  effectiveness in treating mice infected with visceral leishmaniasis: highly effective
[2]; oral miltefosine vs subcutaneous pentostam, mice infected with visceral leishmaniasis
  effectiveness of oral treatment relative to subcutaneous administration of pentostam: 600 fold
[3]
  cure rate: 94%
[4]
  IC50: 23.7 ± 4.07 µM
